According to patent publication US20110081315A1, “NOVEL MACROCYCLIC INHIBITORS OF HEPATITIS C VIRUS REPLICATION” (INTERMUNE, INC., priority 2009, published 2011):
Where two headings read alike, the source gives them in different places.

Experiments:
[1] = rcm bond
NS3/NS4 complexes = NS3/NS4 complexes (Hepatitis C virus genotype 1a, UniProt P27958); assay: NS3/NS4 inhibition assay (IC50); type: biochemical; details: NS3/NS4 activity; 23° C., 25 μM NS4A peptide
How it was run: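 Read-outs are IC50 for inhibition of the NS3/NS4 complex and EC50 in an HCV replicon system. Biochemical runs use 23° C. and a 50 mM Tris-HCl (pH 7.5) buffer with 15% glycerol, 10 mM DTT, 0.6 mM LDAO and 25 μM NS4A peptide.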

hepatitis C replicon = hepatitis C replicon EC50 assay; type: cell-based; details: Hepatitis C virus
How it was run: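 Buffer: 50 mM Tris-HCl pH 7.5, 15% glycerol, 0.6 mM LDAO, 25 μM NS4A peptide, 10 mM DTT, at 23° C. (ambient). EC50 follows a referenced published replicon protocol.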

[2] = hepatitis C replicon, read-out: EC50

Sequence of NS3/NS4 complexes (P27958 1027-1657, one chain of several): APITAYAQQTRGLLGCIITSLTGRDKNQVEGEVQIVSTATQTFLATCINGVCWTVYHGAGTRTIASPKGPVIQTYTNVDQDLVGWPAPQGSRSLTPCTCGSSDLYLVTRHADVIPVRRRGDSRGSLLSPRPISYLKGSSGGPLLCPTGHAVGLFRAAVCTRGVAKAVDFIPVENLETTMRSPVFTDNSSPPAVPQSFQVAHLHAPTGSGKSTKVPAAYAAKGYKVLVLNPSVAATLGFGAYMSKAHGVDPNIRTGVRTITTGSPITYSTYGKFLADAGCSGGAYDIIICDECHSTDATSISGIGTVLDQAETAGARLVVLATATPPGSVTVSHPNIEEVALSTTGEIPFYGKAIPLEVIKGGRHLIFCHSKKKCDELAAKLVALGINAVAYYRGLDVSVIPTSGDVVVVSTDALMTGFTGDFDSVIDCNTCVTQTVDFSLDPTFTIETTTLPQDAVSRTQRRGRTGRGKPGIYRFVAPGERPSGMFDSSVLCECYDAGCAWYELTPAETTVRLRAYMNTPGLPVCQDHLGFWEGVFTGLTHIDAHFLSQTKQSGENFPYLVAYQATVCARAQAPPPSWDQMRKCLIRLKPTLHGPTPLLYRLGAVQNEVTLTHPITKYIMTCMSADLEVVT

| SMILES | IC50 (NS3/NS4 complexes) [nM] | EC50 (hepatitis C replicon; [2]) [nM] | other results |
| --- | --- | --- | --- |
| CCOC(=O)[C@@]12C[C@H]1C=CCCCCN(c1ccccc1)C(=O)[C@@H]1C[C@@H](O)C[C@H]1C(=O)N2 |  |  | ring closure, yield of all isomers ([1]; from C=CCCCCN(C(=O)[C@@H]1C[C@@H](O)C[C@H]1C(=O)N[C@]1(C(=O)OCC)C[C@H]1C=C)c1ccccc1, Hoveyda-Grubbs 2nd generation, DCE, 0.167 mM, 83.0 °C, 16.0 h): 94.6% |
| CC(C)n1cnc2cnc(O[C@@H]3C[C@H]4C(=O)N[C@]5(C(=O)NS(=O)(=O)C6(C)CC6)C[C@H]5C=CCCCCC[C@H](Nc5ccc(C(F)(F)F)cc5)C(=O)N4C3)nc21 |  |  | ring closure, yield of all isomers ([1]; from C=CCCCCC[C@H](Nc1ccc(C(F)(F)F)cc1)C(=O)N1C[C@H](Oc2ncc3ncn(C(C)C)c3n2)C[C@H]1C(=O)N[C@]1(C(=O)NS(=O)(=O)C2(C)CC2)C[C@H]1C=C, Zhan catalyst, toluene, 7.78 mM, 65.0 °C, 1.5 h): 29% |
| COc1ccc2c(O[C@@H]3C[C@H]4C(=O)N[C@]5(C(=O)NS(=O)(=O)C6(C)CC6)C[C@H]5C=CCCCCC[C@H](Nc5cccc(F)c5)C(=O)N4C3)nc(-c3nc(C(C)C)cs3)nc2c1C |  |  | ring closure, yield of all isomers ([1]; from C=CCCCCC[C@H](Nc1cccc(F)c1)C(=O)N1C[C@H](Oc2nc(-c3nc(C(C)C)cs3)nc3c(C)c(OC)ccc23)C[C@H]1C(=O)N[C@]1(C(=O)NS(=O)(=O)C2(C)CC2)C[C@H]1C=C, Zhan catalyst, toluene, 7.24 mM, 65.0 °C, 0.67 h): 24% |
| CC(C)n1c(O[C@@H]2C[C@H]3C(=O)N[C@]4(C(=O)NS(=O)(=O)N(C)C)C[C@H]4/C=C\CCCCC[C@H](NC(=O)OC(C)(C)C)C(=O)N3C2)nc2c(-c3nc(C(C)(C)C)cs3)cccc21 [Compound 232] | < 10 | 10 to 100 |  |
| Cc1sc(-c2cccc3c2nc(O[C@@H]2C[C@H]4C(=O)N[C@]5(C(=O)NS(=O)(=O)C6(C)CC6)C[C@H]5/C=C\CCCCC[C@H](NC(=O)OC(C)(C)C)C(=O)N4C2)n3C(C)C)nc1C(C)(C)C [Compound 1208] | < 10 | 10 to 100 |  |
| Cc1nc(-c2cccc3c2nc(O[C@@H]2C[C@H]4C(=O)N[C@]5(C(=O)NS(=O)(=O)C6CC6)C[C@H]5/C=C\CCCCC[C@H](NC(=O)OC(C)(C)C)C(=O)N4C2)n3C(C)C)sc1C [Compound 217] | < 10 | < 10 |  |
| CC(C)n1c(O[C@@H]2C[C@H]3C(=O)N[C@]4(C(=O)NS(=O)(=O)N(C)C)C[C@H]4/C=C\CCCCC[C@H](NC(=O)OC(C)(C)C)C(=O)N3C2)nc2c(-c3nc(Cc4cccc(F)c4)cs3)cccc21 [Compound 1758] | < 10 | 10 to 100 |  |
| CCOC(=O)N1CCN(C(=O)c2cccc(N[C@H]3CCCCC/C=C\[C@@H]4C[C@@]4(C(=O)NS(=O)(=O)C4(C)CC4)NC(=O)[C@@H]4C[C@@H](Oc5cc(-c6nc(C(C)C)cs6)nc6c(C)c(OC)ccc56)CN4C3=O)c2)CC1 [Compound 108] | < 10 | < 10 |  |
| CCc1csc(-c2cccc3c2nc(O[C@@H]2C[C@H]4C(=O)N[C@]5(C(=O)NS(=O)(=O)N(C)C)C[C@H]5/C=C\CCCCC[C@H](NC(=O)OC(C)(C)C)C(=O)N4C2)n3C(C)C)n1 [Compound 292] | < 10 | < 10 |  |
| CC(C)c1cccc2nc(O[C@@H]3C[C@H]4C(=O)N[C@]5(C(=O)NS(=O)(=O)N(C)C)C[C@H]5/C=C\CCCCC[C@H](NC(=O)OC(C)(C)C)C(=O)N4C3)n(C(C)C)c12 [Compound 290] | < 10 | 10 to 100 |  |
| CN(C)S(=O)(=O)NC(=O)[C@@]12C[C@H]1/C=C\CCCCC[C@H](NC(=O)OC(C)(C)C)C(=O)N1C[C@H](Oc3nc4ccccc4n3-c3ccccc3)C[C@H]1C(=O)N2 [Compound 207] | < 10 | < 10 |  |
| CC(C)n1c(O[C@@H]2C[C@H]3C(=O)N[C@]4(C(=O)NS(=O)(=O)N(C)C)C[C@H]4/C=C\CCCCC[C@H](NC(=O)OC(C)(C)C)C(=O)N3C2)nc2c(-c3nc(-c4ccc(-c5ccccc5)cc4)cs3)cccc21 [Compound 1753] | < 10 | 10 to 100 |  |
| Cc1sc(-c2c(F)ccc3c2nc(O[C@@H]2C[C@H]4C(=O)N[C@]5(C(=O)NS(=O)(=O)N(C)C)C[C@H]5/C=C\CCCCC[C@H](NC(=O)OC(C)(C)C)C(=O)N4C2)n3C(C)C)nc1C(C)C [Compound 1219] | < 10 | < 10 |  |
| CC1(S(=O)(=O)NC(=O)[C@@]23C[C@H]2/C=C\CCCCC[C@H](Nc2ccccc2)C(=O)N2C[C@H](n4nc5ccccc5n4)C[C@H]2C(=O)N3)CC1 [Compound 1501] | 10 to 100 | > 100 |  |
| CC(C)n1c(O[C@@H]2C[C@H]3C(=O)N[C@]4(C(=O)NS(=O)(=O)C5CC5)C[C@H]4/C=C\CCCCC[C@H](NC(=O)OC(C)(C)C)C(=O)N3C2)nc2cncnc21 [Compound 504] | < 10 | 10 to 100 |  |
| CC(C)n1c(O[C@@H]2C[C@H]3C(=O)N[C@]4(C(=O)NS(=O)(=O)C5(C)CC5)C[C@H]4/C=C\CCCCC[C@H](Nc4ccccc4)C(=O)N3C2)nc2c(C(=O)Nc3ccccc3)cccc21 [Compound 273] | < 10 | 10 to 100 |  |
| CC(C)NC(=O)c1cccc2c1nc(O[C@@H]1C[C@H]3C(=O)N[C@]4(C(=O)NS(=O)(=O)N(C)C)C[C@H]4/C=C\CCCCC[C@H](NC(=O)OC(C)(C)C)C(=O)N3C1)n2C(C)C [Compound 281] | < 10 | < 10 |  |
| CC(C)n1c(O[C@@H]2C[C@H]3C(=O)N[C@]4(C(=O)NS(=O)(=O)N(C)C)C[C@H]4/C=C\CCCCC[C@H](NC(=O)OC(C)(C)C)C(=O)N3C2)nc2c(NC(=O)NCCc3ccccc3)cccc21 [Compound 1424] | < 10 |  | EC50 (hepatitis C replicon): < 10 nM |
| CC(C)n1c(O[C@@H]2C[C@H]3C(=O)N[C@]4(C(=O)NS(=O)(=O)C5(C)CC5)C[C@H]4/C=C\CCCCC[C@H](Nc4ccccc4)C(=O)N3C2)nc2c(NC(N)=O)cccc21 [Compound 1410] | < 10 | 10 to 100 |  |
| Cn1ccc2ccc(O[C@@H]3C[C@H]4C(=O)N[C@]5(C(=O)NS(=O)(=O)C6(C)CC6)C[C@H]5/C=C\CCCCC[C@H](NC(=O)OC(C)(C)C)C(=O)N4C3)cc21 [Compound 702] | < 10 | 10 to 100 |  |
| CNC(=O)c1cccc2c1nc(O[C@@H]1C[C@H]3C(=O)N[C@]4(C(=O)NS(=O)(=O)C5(C)CC5)C[C@H]4/C=C\CCCCC[C@H](Nc4ccccc4)C(=O)N3C1)n2C(C)C [Compound 269] | < 10 | 10 to 100 |  |
